Assay results published in ChEMBL document CHEMBL1155596, “8-O-Methylsclerotiorinamine, antagonist of the Grb2-SH2 domain, isolated from Penicillium multicolor” (J Nat Prod, 2000).

Assays:
[1] = biological target: Growth factor receptor-bound protein 2 (Homo sapiens, UniProt P62993); assay: Inhibition of GST tagged Grb2 SH2 domain binding to Shc-derived [3H]phosphopeptide
[2] = Growth inhibition of mouse B104-1-1 cells after 48 hrs by WST1 assay; format: cell-based
[3] = biological target: Growth factor receptor-bound protein 2 (Mus musculus) (UniProt Q60631); assay: Inhibition of Shc-Grb2 interaction in mouse B104-1-1 cells by immunoblotting; format: cell-based; design: scale not given: the % may be the effect or the level left
Sequence of Growth factor receptor-bound protein 2 (Mus musculus) (Q60631 whole entry): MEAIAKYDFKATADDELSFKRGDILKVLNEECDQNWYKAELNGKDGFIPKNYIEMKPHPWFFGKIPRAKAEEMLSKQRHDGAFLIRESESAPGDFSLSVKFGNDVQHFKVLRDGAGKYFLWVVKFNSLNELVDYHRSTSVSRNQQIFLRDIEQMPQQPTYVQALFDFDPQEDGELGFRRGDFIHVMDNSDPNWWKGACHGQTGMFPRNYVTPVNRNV

Sequence of Growth factor receptor-bound protein 2 (P62993 whole entry, the tested form may be a part): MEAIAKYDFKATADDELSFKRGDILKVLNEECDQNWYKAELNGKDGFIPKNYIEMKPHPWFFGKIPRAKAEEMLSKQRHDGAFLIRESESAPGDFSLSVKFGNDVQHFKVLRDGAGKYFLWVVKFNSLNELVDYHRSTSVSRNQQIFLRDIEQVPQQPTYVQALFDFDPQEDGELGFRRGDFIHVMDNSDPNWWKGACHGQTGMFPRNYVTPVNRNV

With `CCC(C)/C=C(C)/C=C/c1cc2c(cn1)=C(OC)[C@@](C)(OC(C)=O)C(=O)C=2Cl` (stereo partly drawn) the IC50 [1] was 5.3 µM, the GI50 at 48 h [2] was 50 µM and the Activity [3] was 50%.
